Measurements: paper PMC8084333, “Trehalose and α-glucan mediate distinct abiotic stress responses in Pseudomonas aeruginosa” (PLoS Genetics, 2021)

Legend:
Format in all cases: biochemical
TreS/Pep2 [1] = target: T1, TreS/Pep2 (Pseudomonas aeruginosa, UniProt Q9I1W3); assay: coupled spectrophotometric ADP-release assay (PK/LDH), global fit; conditions: maltokinase (Pep2 domain); ATP varied, 5 mM MgCl2, pH 8.0, 21 °C; KiB term of random order ternary complex model (substrate dissociation constant), not an inhibition constant
T1 construct: gene PA2152; natural TreS-Pep2 fusion; synthetic codon-optimised gene, N-terminal 6xHis-tag with TEV site, E. coli BL21(DE3), Ni and S200 columns
T1 sequence (Q9I1W3 1-1100): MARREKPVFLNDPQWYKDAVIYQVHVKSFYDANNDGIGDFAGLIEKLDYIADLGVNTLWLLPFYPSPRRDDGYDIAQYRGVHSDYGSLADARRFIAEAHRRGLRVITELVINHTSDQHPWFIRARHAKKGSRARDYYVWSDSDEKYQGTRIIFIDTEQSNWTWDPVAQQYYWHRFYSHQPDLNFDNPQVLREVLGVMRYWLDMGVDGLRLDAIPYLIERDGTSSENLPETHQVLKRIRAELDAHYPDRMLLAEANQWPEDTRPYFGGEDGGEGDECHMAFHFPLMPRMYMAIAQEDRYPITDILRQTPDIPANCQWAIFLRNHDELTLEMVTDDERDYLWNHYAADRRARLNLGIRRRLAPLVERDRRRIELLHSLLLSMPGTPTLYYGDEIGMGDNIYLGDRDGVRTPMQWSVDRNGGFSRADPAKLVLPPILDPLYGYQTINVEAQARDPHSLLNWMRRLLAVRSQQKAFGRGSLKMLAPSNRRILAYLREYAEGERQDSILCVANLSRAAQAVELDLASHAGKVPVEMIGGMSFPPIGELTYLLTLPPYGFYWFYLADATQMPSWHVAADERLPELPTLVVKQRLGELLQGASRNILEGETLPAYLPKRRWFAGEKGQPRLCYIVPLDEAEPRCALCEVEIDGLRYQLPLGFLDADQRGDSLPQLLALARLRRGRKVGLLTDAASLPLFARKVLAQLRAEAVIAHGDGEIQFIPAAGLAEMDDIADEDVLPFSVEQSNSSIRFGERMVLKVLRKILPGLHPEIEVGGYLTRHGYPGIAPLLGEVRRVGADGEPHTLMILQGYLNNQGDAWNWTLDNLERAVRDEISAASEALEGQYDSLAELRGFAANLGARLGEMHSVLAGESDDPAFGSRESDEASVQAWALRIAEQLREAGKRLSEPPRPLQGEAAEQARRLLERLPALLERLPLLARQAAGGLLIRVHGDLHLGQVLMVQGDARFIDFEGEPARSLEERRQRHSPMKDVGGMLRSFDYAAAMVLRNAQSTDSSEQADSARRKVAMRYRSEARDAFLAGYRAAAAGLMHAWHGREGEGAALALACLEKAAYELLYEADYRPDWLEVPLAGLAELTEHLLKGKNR

MalQ = target: T2, MalQ (Pseudomonas aeruginosa, UniProt Q9I1V2); assay: MALDI-TOF MS; conditions: 1 mM substrate; disproportionation
T2 construct: gene PA2163; recombinant, N-terminal 6xHis-tag (pET101), E. coli SoluBL21, HisTrap
T2 sequence (Q9I1V2 1-684): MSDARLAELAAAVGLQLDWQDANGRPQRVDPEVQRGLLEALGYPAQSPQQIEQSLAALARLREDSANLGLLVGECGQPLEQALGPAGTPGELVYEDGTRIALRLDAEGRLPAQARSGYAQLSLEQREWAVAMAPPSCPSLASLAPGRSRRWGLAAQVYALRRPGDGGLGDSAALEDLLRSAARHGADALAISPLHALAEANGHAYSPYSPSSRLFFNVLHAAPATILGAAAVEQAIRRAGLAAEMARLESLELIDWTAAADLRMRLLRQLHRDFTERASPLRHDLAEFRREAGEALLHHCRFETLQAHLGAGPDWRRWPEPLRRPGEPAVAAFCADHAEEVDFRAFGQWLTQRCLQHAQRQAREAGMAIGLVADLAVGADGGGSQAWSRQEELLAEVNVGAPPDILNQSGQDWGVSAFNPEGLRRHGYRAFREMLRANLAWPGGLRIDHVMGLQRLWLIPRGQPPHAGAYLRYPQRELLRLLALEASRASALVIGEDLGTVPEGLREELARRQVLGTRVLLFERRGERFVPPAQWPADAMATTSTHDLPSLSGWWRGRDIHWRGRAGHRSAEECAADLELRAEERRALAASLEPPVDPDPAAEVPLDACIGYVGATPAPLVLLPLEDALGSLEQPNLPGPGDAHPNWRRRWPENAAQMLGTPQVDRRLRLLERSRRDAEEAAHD

TreS/Pep2 [2] = target: T1, TreS/Pep2; assay: TreS activity coupled to Pep2 maltokinase ADP-release assay; conditions: trehalose isomerisation (TreS domain); ATP, 5 mM MgCl2, pH 8.0, 21 °C

Compound | Ki^Mal (TreS/Pep2 [1]) [µM] | MALDI-TOF MS (MalQ) | Km (TreS/Pep2 [2]) [mM]
OC[C@H]1O[C@H](O[C@H]2[C@H](O)[C@@H](O)C(O)O[C@@H]2CO)[C@H](O)[C@@H](O)[C@@H]1O (stereo partly drawn) [maltose] | 550 ± 130 | We therefore incubated MalQ with maltose | –
OC[C@H]1O[C@H](O[C@H]2O[C@H](CO)[C@@H](O)[C@H](O)[C@H]2O)[C@H](O)[C@@H](O)[C@@H]1O [trehalose] | – | – | > 100
